Here are results for ten compounds from US8518964B2, “Tricyclic compounds useful as inhibitors of kinases” (Merck Sharp & Dohme Corp., priority 2006, dated 2013).

A value given as a limit tells only on which side of the number the result lay.

This assay deals with T1, IKKβ (Homo sapiens, UniProt O14920).
T1 construct: His; made in house; host or cells: SF9 insect cells (baculovirus, pVL1393 transfer vector)
T1 sequence (O14920 1-756): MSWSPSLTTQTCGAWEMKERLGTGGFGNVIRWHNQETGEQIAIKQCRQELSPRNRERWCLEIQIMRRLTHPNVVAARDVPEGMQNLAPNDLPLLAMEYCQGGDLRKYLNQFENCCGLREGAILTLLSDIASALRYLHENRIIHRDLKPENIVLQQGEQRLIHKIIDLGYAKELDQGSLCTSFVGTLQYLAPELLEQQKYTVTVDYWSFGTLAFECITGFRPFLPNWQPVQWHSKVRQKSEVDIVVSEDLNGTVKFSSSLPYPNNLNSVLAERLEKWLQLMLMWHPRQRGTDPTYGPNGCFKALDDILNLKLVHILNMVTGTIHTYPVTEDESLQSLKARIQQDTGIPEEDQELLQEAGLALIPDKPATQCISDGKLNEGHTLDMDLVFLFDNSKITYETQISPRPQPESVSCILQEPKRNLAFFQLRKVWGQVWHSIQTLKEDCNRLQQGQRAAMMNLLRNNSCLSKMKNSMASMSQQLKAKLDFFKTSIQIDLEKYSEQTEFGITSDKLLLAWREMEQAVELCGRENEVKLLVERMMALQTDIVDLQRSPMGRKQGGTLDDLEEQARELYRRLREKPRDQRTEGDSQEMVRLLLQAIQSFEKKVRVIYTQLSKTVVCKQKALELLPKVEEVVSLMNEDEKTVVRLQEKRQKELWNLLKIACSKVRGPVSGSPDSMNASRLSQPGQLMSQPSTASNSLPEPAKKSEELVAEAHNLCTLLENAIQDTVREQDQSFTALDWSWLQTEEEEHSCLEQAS
Briefly: Homogenous Time Resolved Fluorescence (HTRF) assay for IKK inhibitory activity. It counts as biochemical. To be noted: read-out: IKKβIC50. An excerpt: Homogenous Time Resolved Fluorescence (HTRF) Assay for IKK Inhibitory Activity.
This enzyme assay monitors the inhibitory potency of the compounds of Formula I and II to block the catalytic activity of IKKα and IKKβ in vitro. The full-length coding sequences of IKKα and IKKβ are subcloned into the appropriate site of pVL1393 (Pharmingen) to construct a baculovirus transfer vector. Recombinant baculovirus was generated from vector-transfected SF9 cells (BaculoGold™, Invitrogen), cloned, amplified and used to infect SF9 cells for protein production. Recombinant His-tagged IKKα and IKKβ are isolated from the Baculovirus-infected SF9 cells expressing the fusion protein.
An HTRF assay in a 384-well format established on a Biomek FX is used to test the inhibitory activity of compounds of Formula I. The peptide substrate, biotin-DRHDSGLDSMKDE (SEQ. ID.: 1) used to assay IKKβ activity spans residues 28 to 40 of IκBα and was custom synthesized (Synpep). A biotinylated peptide that spans residues 21 to 40 of Iκbα, […] (SEQ. ID.: 2), was used as substrate for IKKα. The assay conditions used to test inhibitory activity of compounds against IKKβ comprises 110 nM recombinant enzyme, 150 nM peptide substrate, 6 μM ATP, 10% (v/v) DMSO, 15 mM MgCl2, 2 mM DTT, and 50 mM Tris/HCl at a pH of 7.5. For IKKα, the reaction mixture comprises 125 nM recombinant enzyme, 400 nM peptide substrate, 6 μM ATP, 10% (v/v) DMSO, 15 mM MgCl2, 2 mM DTT, and 50 mM Tris/HCl at a pH of 7.5. The kinase reaction proceeds for 20 and 35 min for IKKα and IKKβ respectively and then it is quenched by the addition of EDTA to a final concentration of 20 mM. Following completion of the kinase assay, 5 μL of the reaction is quantified by HTRF with a 5 μL detection mix comprising 40 mM HEPES, 100 mM KF, 27.7 nM Streptavidin-tagged-XL665-XLent (CIS-Bio international), 0.3 nM anti-phospho-IκBα mAb (Cell signaling), 1 nM anti-phospho peptide antibody conjugated to Eu (CIS-Bio international). Following excitation at 330 nm, the 665 nm/615 nm emission ratio is measured after a 2-hour incubation at room temperature to quantify the FRET signal.
For orientation: Time-resolved FRET reads energy transfer from a long-lived donor to a nearby acceptor.
Turning to `NC(=O)c1cnc(N)c2c1sc1c(Cl)cccc12` [Example 3, 1-Amino-6-chloro[1]benzothieno[3,2-c]pyridine-4-carboxamide], the IC50 is at most 1000 nM.

In the case of `NC(=O)c1cnc(N)c2c1[nH]c1c(Cl)cccc12` [Example 25, 1-Amino-6-chloro-5H-pyrido[4,3-b]indole-4-carboxamide], the IC50 is at most 100 nM.

`NC(=O)c1cnc(N2CCC3(CC2)OCc2ccccc23)c2c1[nH]c1ccc(F)cc12` [Example 9, 8-Fluoro-1-(1′H,3H-spiro[2-benzofuran-1,4′-piperidin]-1′-yl)-5H-pyrido[4,3-b]indole-4-carboxamide]: the IC50 was at most 500 nM.

`CN(C)Cc1ccc(-c2ccc3c(c2)sc2c(C(N)=O)cnc(N)c23)cc1` [Example 21, 1-Amino-7-{4-[(dimethylamino)methyl]phenyl}[1]benzothieno[3,2-c]pyridine-4-carboxamide]: the IC50 is at most 500 nM.

Turning to `NC(=O)c1cnc(N)c2c1[nH]c1ccc(F)cc12` [Example 6, 1-Amino-8-fluoro-5H-pyrido[4,3-b]indole-4-carboxamide], the IC50 is at most 1000 nM.

As for `NC(=O)c1cnc(N)c2c1[nH]c1cc(C(F)(F)F)ccc12` [Example 5, 1-Amino-7-(trifluoromethyl)-5H-pyrido[4,3-b]indole-4-carboxamide], the IC50 is at most 100 nM.

As to `NC(=O)c1cnc(N)c2c1sc1c(-c3ccccc3)cccc12` [Example 4, 1-Amino-6-phenyl[1]benzothieno[3,2-c]pyridine-4-carboxamide], the IC50 was at most 1000 nM.

With `CCCCNc1ncc(C(N)=O)c2[nH]c3ccc(F)cc3c12` [Example 8, 1-(Butylamino)-8-fluoro-5H-pyrido[4,3-b]indole-4-carboxamide], the IC50 was at most 1000 nM.

Regarding `NC(=O)c1cnc(N)c2c1sc1cc(/C=C/c3ccc(F)cc3)ccc12` [Example 16, 1-Amino-7-[(E)-2-(4-fluorophenyl)vinyl][1]benzothieno[3,2-c]pyridine-4-carboxamide], the IC50 was at most 500 nM.

For `NC(=O)c1cnc(N)c2c1[nH]c1ccc(Br)cc12` [Example 11, 1-Amino-8-bromo-5H-pyrido[4,3-b]indole-4-carboxamide], the IC50 is at most 1000 nM.
